Data on one molecule can be found in patent publication US20240317755A1, “HETEROCYCLIC COMPOUND, AND INTERMEDIATE THEREOF, PREPARATION METHOD THEREFOR AND USE THEREOF” (WUHAN LL SCIENCE AND TECHNOLOGY DEVELOPMENT CO., LTD., priority 2021, published 2024).

Read-outs that look alike come from different tables or passages of the source.

The target in one data set is TRPC5 channel (Homo sapiens (Human), UniProt Q9UL62). The data set is described as follows: TRPC5 calcium flux assay (Fluo-4, FLIPR) in TRPC5-HEK 293 cells. The note with it: 0.3 nM Englerin A. Format: cell-based. The method, then: TRPC5 is a type of non-selective cation channel with permeability to calcium ions. […] Fluo-4 AM fluorescence dye was used to indirectly reflect the effect of the compound on TRPC5 channel by detecting intracellular Ca^2+ in TRPC5-HEK 293 cells.
• Revival solution: 100% high glucose DMEM • Selection medium: high glucose DMEM+10% FBS+1% P/S+1% HEPES+Blasticidin (5 μg/mL)+Hygromycine (50 μg/mL) • Induction medium: high glucose DMEM+10% FBS+1% P/S+1% HEPES+Doxycycline (1 μg/mL)
14 hours before the real-time fluorescence experiment, cells were washed with PBS and digested with trypsin-EDTA. Cells were diluted to 200,000 cells/mL with induction medium and seeded onto a 96-well black wall bottom transparent plate coated with poly-D-lysine (PDL) (stock solution of 10 mg/mL, final concentration of 10 μg/mL) at 100 μL/well, i.e., 20,000 cells/well.
500 mL of external solution for detecting TRPC5 calcium signals: 4.0908 g of NaCl, 0.1864 g of KCl, 0.111 g of CaCl2, 0.0476 g of MgCl2, 0.9 g of glucose, 1.1915 g of HEPES (2-[4-(2-hydroxyethyl)piperazin-1-yl]ethanesulfonic acid).
Calcium fluorescent dye: an external solution for detecting TRPC5 calcium signals containing Fluo-4 with a final concentration of 4 μM (containing 0.5% BSA)
Positive inhibitor concentration: 100 nM
The dose-effect diagram was used to calculate AUC (area under the curve of the curve formed by the calcium flux signal), and the data and the log of the compound concentration were collected. The IC50 value was calculated using log[Inhibitor] vs. response Variable slope.
TRPC5 is a type of non-selective cation channel with permeability to calcium ions. […] Fluo-4 AM fluorescence dye was used to indirectly reflect the effect of the compound on TRPC5 channel by detecting intracellular […] in TRPC5-HEK 293 cells.
1. Cell culture 1.1 Revival of TRPC5-HEK 293 cells • Revival solution: 100% high glucose DMEM • Selection medium: high glucose DMEM+10% FBS+1% P/S+1% HEPES+Blasticidin (5 μg/mL)+Hygromycine (50 μg/mL) • Induction medium: high glucose DMEM+10% FBS+1% P/S+1% HEPES+Doxycycline (1 μg/mL)
14 hours before the real-time fluorescence experiment, cells were washed with PBS and digested with trypsin-EDTA (TE). Cells were diluted to 200,000 cells/mL with induction medium and seeded onto a 96-well black wall bottom transparent plate coated with poly-D-lysine (PDL) (stock solution of 10 mg/mL, final concentration of 10 μg/mL) at 100 μL/well, i.e., 20,000 cells/well.

Data set [1] is described as follows: Liver microsome half-life assay, monkey. The class given is in vitro ADME. The note with it: liver microsomes, 1 mg/mL liver microsomal protein, 37° C., read-out: Liver microsome T½ (min) Monkey. Here is the method:
The in vitro metabolic stability of the compounds of the present disclosure was determined using warm incubation method of liver microsomes in various species. A proper amount of test compound was added to the liver microsomal reaction system (1 mg/mL liver microsomal protein, 25 U/mL glucose-6-phosphate dehydrogenase, 1 mM NADP, 6 mM D-glucose 6-phosphate, 5 mM MgCl2), and the reaction was started by warm incubation in a water bath at 37° C., then 100 μL of the reaction mixture at each time point was added to a centrifuge tube containing 400 μL of internal standard working solution precooled at 0° C. (containing a solution of 200 ng/mL dexamethasone, diclofenac, tolbutamide, and labetalol in acetonitrile), then the reaction was terminated, centrifuged at 4° C. and 10,000 g for 10 min, and the supernatant was taken into LC-MS for analysis and detection to obtain in vitro metabolic half-lives of the test compounds in liver microsomes of various species.

A short description of data set [2]: Pharmacokinetic study in mice in vivo (gavage and tail vein injection). The conditions noted are these: for AUC(0-t) / Cmax: dose 1 mg/kg. The text has this:
[…] Mouse plasma was collected at a specific time point after administration, and the concentration of the compound in plasma was detected by LC-MS/MS (AB SCIEX Qtrap4500). PK parameters of each compound (WinNonlin V5.2, Pharsight) were statistically analyzed and calculated to reflect the pharmacokinetic properties of the compounds of the present disclosure in mice in vivo.

TRPC5 channel, sequence (Q9UL62 whole entry): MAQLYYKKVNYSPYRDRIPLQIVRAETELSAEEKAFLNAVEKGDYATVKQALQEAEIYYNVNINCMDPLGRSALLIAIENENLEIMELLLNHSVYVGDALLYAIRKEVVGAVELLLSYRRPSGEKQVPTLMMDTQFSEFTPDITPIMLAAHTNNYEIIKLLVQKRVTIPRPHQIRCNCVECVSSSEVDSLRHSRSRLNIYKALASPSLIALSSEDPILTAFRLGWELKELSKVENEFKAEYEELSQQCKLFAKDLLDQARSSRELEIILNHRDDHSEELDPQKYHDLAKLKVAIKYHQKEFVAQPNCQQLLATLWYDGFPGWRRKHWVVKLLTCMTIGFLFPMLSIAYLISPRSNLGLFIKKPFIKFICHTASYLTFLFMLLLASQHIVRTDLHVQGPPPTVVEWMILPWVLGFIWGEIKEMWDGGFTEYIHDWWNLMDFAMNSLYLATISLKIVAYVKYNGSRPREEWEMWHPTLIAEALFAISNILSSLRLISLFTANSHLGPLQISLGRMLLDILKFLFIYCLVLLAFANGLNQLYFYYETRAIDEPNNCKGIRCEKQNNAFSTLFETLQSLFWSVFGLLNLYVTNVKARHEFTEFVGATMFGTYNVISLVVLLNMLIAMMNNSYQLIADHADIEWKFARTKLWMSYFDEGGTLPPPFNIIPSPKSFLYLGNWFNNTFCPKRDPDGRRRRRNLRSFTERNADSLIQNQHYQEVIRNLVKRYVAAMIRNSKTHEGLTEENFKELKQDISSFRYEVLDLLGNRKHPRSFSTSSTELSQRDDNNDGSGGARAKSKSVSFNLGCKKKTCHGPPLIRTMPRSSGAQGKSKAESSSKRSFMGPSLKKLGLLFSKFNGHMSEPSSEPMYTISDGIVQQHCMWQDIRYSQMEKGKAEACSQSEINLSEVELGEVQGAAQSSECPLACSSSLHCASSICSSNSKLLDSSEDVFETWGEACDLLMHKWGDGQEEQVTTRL

Consider `O=C(c1ccc(F)cc1C(F)(F)F)c1cnc2n1CCN(c1cn[nH]c(=O)c1Cl)C2` [Compound 1-6, 4-chloro-5-(3-(4-fluoro-2-(trifluoromethyl)benzoyl)-5,6-dihydroimidazo[1,2-a]pyrazin-7(8H)-yl)pyridazin-3(2H)-one], for which the concentration for half-maximal inhibition (IC50) on TRPC5 channel (Table 1, read-out: TRPC5 inhibitory activity, IC50) was determined as 11.5 nM; on TRPC5 channel (Table 11, read-out: TRPC5 inhibitory activity, IC50) it was 11.5 nM. In addition, in data set [1], the half-life came out at 247 min. The exposure AUC(0-t) in data set [2] (mouse, plasma, iv) came out at 1860 ng·h/mL; in data set [2] (mouse, plasma, po), 1240 ng·h/mL. Besides, the Cmax in data set [2] (mouse, plasma, iv) was 1110 ng/mL; in data set [2] (mouse, plasma, po), 422 ng/mL. The same molecule displayed a bioavailability in data set [2] (mouse, plasma, po, 1 mg/kg, p.o. vs i.v.) of 66.8%. In addition, the “time of peak plasma concentration” value in data set [2] (oral administration, 10 mg/kg, previous PK results) was determined as 1 h.
